Results from US9555086B2, “Compositions and methods for inducing an immune response” (The Regents of the University of Michigan, priority 2010, dated 2017).

Key:
[1] = test system: CD11c+DCs; experiment: IL-23 and IL-6 production in LPS-stimulated bone marrow-derived CD11c+DCs (ELISA); format: cell-based, mouse; settings: LPS-treated DCs (100 ng/ml LPS)
Procedure: DBA/1 bone marrow-derived CD11c+DCs were cultured with or without 100 ng/ml LPS in the presence or absence of ISL-positive or ISL-negative 15mer peptides (50 μg/ml). Supernatants were collected at different time points and assayed for IL-23 and IL-6 content by ELISA.
To determine the rate of NO production, cells were loaded with 20 μM of the fluorescent NO probe 4,5-diaminofluorescein diacetate (DAF-2DA) and the fluorescence level was recorded every 5 minutes over a period of 500 minutes using a Fusion αHT system (PerkinElmer Life Sciences) at an excitation wavelength of 488 nm and emission wavelength of 515 nm. To determine IDO enzymatic activity, the generation of its product, kynurenine was measured (Takikawa et al. 1988. J Biol Chem 263:2041-2048.; herein incorporated by reference in its entirety). Cytokine concentrations were measured in cell culture supernatants using a Luminex platform (Millipore Corporation, Danvers, Mass.). In some experiments, cytokines were determined using ELISA (Quantikine®, R&D Systems, Minneapolis, Minn.) following the manufacture's instruction.

[2] = test system: CD4+CD25+Foxp3+ Treg; experiment: Treg differentiation in DC/CD4+ T cell co-culture; format: cell-based, mouse; settings: 50 μg/ml peptide; for Treg differentiation (CD4+CD25+Foxp3+ abundance): DCs co-cultured with naïve CD4+CD25−CD62L+CD44− T cells, 5 days
Procedure: (A) DBA/1 bone marrow-derived CD11c+DCs were cultured overnight with 50 μg/ml SL ligand 65-79*0401 or ISL-negative control 65-79*0402, or medium. Syngeneic splenic CD4+ T cells were then added to the culture, and incubated with anti-CD3 and TGF-β for 5 days. On the left, flow cytometry dot plots showing percentages of CD25+Foxp3+ cells obtained from gated CD4+ T cells in each treatment. Each plot is representative of three experiments. On the right, bar graphs present results as mean percentage±SD of replicate samples. (B) Cultures were performed as in (A), with the exception that CD4+CD25− CD62L+CD44− naïve T cells, instead of CD4+ T cells were added to the CD11c+DCs. (C) DBA/1 bone marrow-derived CD11c+DCs were incubated overnight with 2 μg/ml tetramers (ISL-positive T-DRB1*0401, versus ISL-negative T-DRB1*0301, or T-DRB1*1501). Syngeneic CD4+CD25−CD62L+CD44− naïve T cells, anti-CD3 and TGF-β were then added to the culture and incubated for 5 days and analyzed as above.
DBA/1 bone marrow-derived CD11c+DCs were placed in 24-well plates (BD Biosciences, San Jose, Calif.) at a density of 2.5×10^5 cells per well and cultured overnight with or without 50 μg/ml of peptidic (65-79*0401 or 65-79*0402), or 2 μg/ml of tetrameric (T-DR1*0401, T-DR1*0301, or T-DR1*1501) ligands at 37° C. On the following day, 5.0×10^5 CD4+ T cells or CD4+CD25−CD62L+CD44− naïve T cells, isolated as described above, were added to each well in addition to anti-CD3 antibodies (5 μg/ml) and rhTGFβ (2.5 ng/ml).
After 5 days in culture, cells were harvested and stained for flow cytometric analysis using FITC anti-mouse CD4 (clone […]), PE anti-mouse CD25 (clone PC61) and isotype controls (Biolegend, San Diego, Calif.). […] After permeabilization, cells were stained using an APC-conjugated anti-mouse Foxp3 antibody (clone FLK-16S from e-Bioscience, San Diego, Calif.) and analyzed by FACScalibur flow cytometer using the CELLQuest™ software (Becton Dickinson, Franklin Lakes, N.J.).

[3] = test system: Th17 cells; experiment: ISL polarizing effect in vivo (CII in CFA immunization); parameters: species or system DBA/1 mice
Procedure: (A) DBA/1 mice were immunized with CII in CFA in the presence of PBS, 65-79*0401 or 65-79*0402. On day 7, cells from draining lymph nodes were isolated, cultured for 6 hours with PMA, Ionomycin and Brefeldin A and then stained with anti-mouse CD4, IL17A and IFN-γ as above. On the left: Representative dot plots showing percentages of IL17A+ and IFN-γ+ cells obtained from gated CD4+ cells. On the right, bar graphs showing results as mean±SD of duplicate experiments. (B) DBA/1 and CII-TCR Tg mice were immunized as in (A). On day 7, splenic cells were isolated and cultured with the synthetic peptide CII260-267 (5 μg/ml). Supernatants were collected every 24 hours and assayed for IL-17 levels by ELISA.
Mice were injected subcutaneously in the footpad with 100 μg of chicken collagen type II (CII) (Chondrex, Inc, Redmond, Wash.) emulsified in CFA (4 mg/ml). The inoculums contained 10 μg of either ISL-positive 65-79*0401 or ISL-negative 65-79*0402 ligands in PBS, or an equal volume of PBS alone. Animals were sacrificed 7 days after immunization. For Th17 quantification studies, inguinal and popliteal lymph nodes were collected and single cell suspensions were prepared. Unfractionated lymph node cells were cultured with PMA, Ionomycin and Brefeldin A for 6 hours as above. Cells were stained with FITC anti-mouse CD4 or isotype controls, followed by fixation and permeabilization using a Cytofix-Cytoperm™ kit. After permeabilization, intracellular staining was performed using PE-conjugated anti-mouse IL17A and APC-conjugated anti-mouse IFN-γ and cells were analyzed by flow cytometry as above. To measure IL-17 production, splenocytes from mice immunized as above were stimulated in vitro with 5 μg of CII259-273 peptide. At different time points thereafter, supernatants were collected and assayed for IL-17 by ELISA as above.

[4] = test system: Human fibroblast M1 cells; settings: previously determined; cited from earlier work
[5] = test system: trypsin and chymotrypsin; experiment: Trypsin/chymotrypsin stability assay; settings: after 30 minutes, 37° C., pH 8

For H-KDLLEQKRAAVDTYC-NH2 [65-79*0401], the IL-23 production [1] was “augmented”, the “Treg expansion (CD4+CD25+Foxp3+ abundance)” value ([2]; DCs co-cultured with CD4+ T cells, TGF-β, anti-CD3, 5 days) was “significantly inhibited” and the “Treg differentiation (CD4+CD25+Foxp3+ abundance)” value [2] was “significantly inhibited”. The “Treg differentiation (CD4+CD25+Foxp3+ abundance)” value ([2]; listed as 65-79*040) was “statistically significant, yet modest”, the “Th17 abundance in draining lymph nodes” value ([3]; 10 μg co-administered with CII in CFA, footpad, day 7) was “dramatically increased” and the “CII-stimulated IL-17 production by splenocytes” value ([3]; compared to mice co-immunized with 65-79*0402) was “significantly more robust”. The “frequency of Th1 (IFNγ-positive) cells” value ([3]; draining lymph nodes, day 7) was “no change”, the “optimal concentration for NO production” value [4] was 50 µM and the “degradation by trypsin/chymotrypsin (HPLC)” value [5] was “degraded completely”.
